Measurements published in patent US10138242B2, “Pyrazolopyridine derivatives and their use in therapy” (HELMHOLTZ ZENTRUM MUENCHEN—DEUTSCHES FORSCHUNGSZENTRUM FUER …, priority 2015, dated 2018).
pIC50: −log10 of the molar value.

What follows are compounds tested on T. brucei brucei bloodstream form parasites (strain Lister 427) (assay: Antitrypanosomal activity assay (resazurin; FIG. 2)). Conditions: Trypanosoma brucei; 66 h + 6 h resazurin.
Assay type: cell-based
Experimental: (A) The trypanosoma cell count and growth were evaluated at different doses of compounds of the invention.
Antitrypanosomal activity was tested on T. brucei brucei bloodstream from parasites (strain—Lister 427, VATMITat 1.2). Stock solutions of compounds (50 mM) were prepared in DMSO. Two fold serial dilutions of each compound (10 wells in each row) were prepared in 96 well plates in HMI111 medium (100 μl/well; quadruplicates; cf. also Hirumi et al., J. Parasitol. 75 (1989), 985-989). One well without compound, and one well with media alone were included in each row. […] The plates were incubated for 66 hours at 37° C. in the incubator with 5% CO2. 20 μl resazurin (Sigma, 0.125 mg/ml in Hanks Balanced Salt Solution) was added to all wells and the plate was further incubated for 6 hours. Change in color of resazurin (blue to pink) by living cells was measured with a 96 well plate reader (excitation at 530 nm, emission at 585 nm, filter cut-off: 570 nm). Percent inhibition values were calculated by setting the well without compound to “0% inhibition”.

SMILES | pIC50
NC(=O)Cn1nc(C(=O)NCc2ccccc2)c2c1CCN(Cc1c[nH]c3ccccc13)C2 [Compound 4] | 4.29
COc1ccc(CN2CCc3[nH]nc(C(=O)NCc4cccc5ccccc45)c3C2)c2ccccc12 [Compound 5] | 5.47
O=C(NCc1ccccc1)c1nn(-c2ccccc2)c2c1CN(Cc1c[nH]c3ccccc13)CC2 [Compound 6] | 5.10
Cn1nc(C(=O)NCc2ccccc2)c2c1CCN(Cc1ccccc1)C2 [Compound 7] | 4.35
Cn1nc(C(=O)NCc2ccccc2)c2c1CCN(Cc1ccc(-c3ccccc3)cc1)C2 [Compound 9] | 5.17
Cn1nc(C(=O)NCc2ccccc2)c2c1CCN(Cc1cccc(-c3ccccc3)c1)C2 [Compound 10] | 5.13
Cn1nc(C(=O)NCc2ccccc2)c2c1CCN(Cc1c[nH]c3cc(OCc4ccccc4)ccc13)C2 [Compound 11] | 5.96
Cn1nc(C(=O)NCc2ccccc2)c2c1CCN(Cc1cccc3ccccc13)C2 [Compound 12] | 4.92
COc1ccc(CN2CCc3c(c(C(=O)NCc4cccc5ccccc45)nn3CCN3CCOCC3)C2)c2ccccc12 [Compound 13] | 5.45
COc1ccc(CN2CCc3c(c(C(=O)NCc4cccc5ccccc45)nn3-c3cnccn3)C2)c2ccccc12 [Compound 14] | 5.44
COc1ccc(CN2CCc3c(c(C(=O)NCc4cccc5ccccc45)nn3C3CN(C(=O)C(C)(C)C)C3)C2)c2ccccc12 [Compound 15] | 5.83
COc1ccc(CN2CCc3c(c(C(=O)NCc4cccc5ccccc45)nn3C3CCCC3)C2)c2ccccc12 [Compound 16] | 5.63
COc1ccc(CN2CCc3c(c(C(=O)NCc4cccc5ccccc45)nn3Cc3ccccc3)C2)c2ccccc12 [Compound 17] | 5.59
COc1ccc(CN2CCc3c(c(C(=O)NCc4cccc5ccccc45)nn3C3CCC3)C2)c2ccccc12 [Compound 18] | 5.73
O=C(NCc1ccccc1)c1nn(CCO)c2c1CN(Cc1ccc(OC(F)(F)F)cc1)CC2 [Compound 24] | 4.60
O=C(NCc1ccccc1)c1nn(CCO)c2c1CN(Cc1ccn(-c3ccccc3)c1)CC2 [Compound 27] | 4.41
O=C(NCc1ccccc1)c1nn(CCO)c2c1CN(Cc1cc3ccccc3c3ccccc13)CC2 [Compound 30] | 5.18
COc1ccc(CN2CCc3c(c(C(=O)NCc4cccc5ccccc45)nn3-c3ccccc3)C2)c2ccccc12 [Compound 37] | 5.46
O=C(NCc1cccc2ccccc12)c1nn(CCO)c2c1CN(Cc1ccc(-c3ccccc3)cc1)CC2 [Compound 38] | 5.43
O=C(NCc1cccc2ccccc12)c1nn(CCO)c2c1CN(Cc1cccc(-c3ccccc3)c1)CC2 [Compound 39] | 5.26
O=C(NCc1cccc2ccccc12)c1nn(CCO)c2c1CN(Cc1cccc3cccnc13)CC2 [Compound 45] | 4.97
O=C(NCc1cccc2ccccc12)c1nn(CCO)c2c1CN(Cc1ccc(C(F)(F)F)cc1)CC2 [Compound 48] | 5.27
CCCc1ccc(CN2CCc3c(c(C(=O)NCc4cccc5ccccc45)nn3CCO)C2)cc1 [Compound 49] | 5.57
O=C(NCc1cccc2ccccc12)c1nn(CCO)c2c1CN(Cc1cccc3cc[nH]c13)CC2 [Compound 53] | 5.17
O=C(NCc1cccc2ccccc12)c1nn(CCO)c2c1CN(Cc1cccc3c1OCO3)CC2 [Compound 54] | 4.72
CCOC(=O)CN(Cc1cccc2ccccc12)C(=O)c1nn(CCO)c2c1CN(Cc1ccc(OC)c3ccccc13)CC2 [Compound 121] | 5.30
COc1ccc(CN2CCc3c(c(C(=O)NCc4cccc5ccccc45)nn3CCC(C)(C)C)C2)c2ccccc12 [Compound 124] | 5.46

The compounds below were run against PEX5-PEX14 complex (biotin-coupled PEX5 peptide, His-tagged T. brucei PEX14) (Trypanosoma brucei brucei, UniProt Q38CL4) (assay: biochemical). Conditions: 30 nM PEX5, 30 nM PEX14; quadruplicate; read-out: AlphaScreen EC50 [μM] (±SD).
Sequence of PEX5-PEX14 complex (biotin-coupled PEX5 peptide, His-tagged T. brucei PEX14) (Q38CL4 1-366, one chain of several): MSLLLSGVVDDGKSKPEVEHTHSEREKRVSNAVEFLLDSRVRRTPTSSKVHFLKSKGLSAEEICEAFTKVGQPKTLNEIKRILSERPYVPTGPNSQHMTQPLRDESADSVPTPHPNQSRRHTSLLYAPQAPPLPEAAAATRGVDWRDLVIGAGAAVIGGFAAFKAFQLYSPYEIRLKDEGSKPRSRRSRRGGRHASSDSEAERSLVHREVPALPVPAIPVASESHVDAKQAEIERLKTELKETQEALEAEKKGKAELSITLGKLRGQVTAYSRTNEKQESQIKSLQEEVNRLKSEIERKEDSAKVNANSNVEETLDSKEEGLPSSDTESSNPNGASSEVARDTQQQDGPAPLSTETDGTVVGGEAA
Assay type: binding
Excerpt: The assay uses two types of beads: donor beads are coupled with streptavidin, and acceptor beads are coupled with an anti His-tag antibody. Upon excitation with light of a wavelength of 680 nm the donor beads produce reactive oxygen species that travel in solution only for a limited distance. If the acceptor beads are within that travel distance, it will absorb the reactive oxygen and emit light in the range of 520-620 nm. […] Thus, PEX5-PEX14 complex dissociation by a ligand caused decrease in light emission as the donor and acceptor beads were separated. Typically, we used 30 nM PEX5, 30 nM PEX14 and bead concentrations of 5 μg/mL. The PEX5-PEX14 complex was incubated with varying concentrations of inhibitor for 1 hour. Next, the beads were added and the system allowed to equilibrate for another hour. The raw data were fitted to four parameter sigmoidal curves by Origin software and EC50 values calculated. Each measurement was performed in quadruplicate and every experiment was accompanied with blank and reference samples (using non-biotynylated PEX5 peptide as a binding competitor).

SMILES | EC50 [µM]
NC(=O)Cn1nc(C(=O)NCc2ccccc2)c2c1CCN(Cc1c[nH]c3ccccc13)C2 [Compound 4] | 1380
COc1ccc(CN2CCc3[nH]nc(C(=O)NCc4cccc5ccccc45)c3C2)c2ccccc12 [Compound 5] | 16.5
O=C(NCc1ccccc1)c1nn(-c2ccccc2)c2c1CN(Cc1c[nH]c3ccccc13)CC2 [Compound 6] | 18.3
Cn1nc(C(=O)NCc2ccccc2)c2c1CCN(Cc1ccccc1)C2 [Compound 7] | 4530
Cn1nc(C(=O)NCc2ccccc2)c2c1CCN(Cc1ccc(-c3ccccc3)cc1)C2 [Compound 9] | 27.8
Cn1nc(C(=O)NCc2ccccc2)c2c1CCN(Cc1cccc(-c3ccccc3)c1)C2 [Compound 10] | 33.6
Cn1nc(C(=O)NCc2ccccc2)c2c1CCN(Cc1c[nH]c3cc(OCc4ccccc4)ccc13)C2 [Compound 11] | 22.1
COc1ccc(CN2CCc3c(c(C(=O)NCc4cccc5ccccc45)nn3CCN3CCOCC3)C2)c2ccccc12 [Compound 13] | 6.72
COc1ccc(CN2CCc3c(c(C(=O)NCc4cccc5ccccc45)nn3-c3cnccn3)C2)c2ccccc12 [Compound 14] | 11.9
COc1ccc(CN2CCc3c(c(C(=O)NCc4cccc5ccccc45)nn3C3CN(C(=O)C(C)(C)C)C3)C2)c2ccccc12 [Compound 15] | 7.92
COc1ccc(CN2CCc3c(c(C(=O)NCc4cccc5ccccc45)nn3C3CCCC3)C2)c2ccccc12 [Compound 16] | 10.6
COc1ccc(CN2CCc3c(c(C(=O)NCc4cccc5ccccc45)nn3Cc3ccccc3)C2)c2ccccc12 [Compound 17] | 10.5
COc1ccc(CN2CCc3c(c(C(=O)NCc4cccc5ccccc45)nn3C3CCC3)C2)c2ccccc12 [Compound 18] | 11.1
CCc1ccc(CN2CCc3c(c(C(=O)NCc4ccccc4)nn3CCO)C2)cc1 [Compound 23] | 133
O=C(NCc1ccccc1)c1nn(CCO)c2c1CN(Cc1ccc(OC(F)(F)F)cc1)CC2 [Compound 24] | 80.4
O=C(NCc1ccccc1)c1nn(CCO)c2c1CN(Cc1ccn(-c3ccccc3)c1)CC2 [Compound 27] | 196
COC(=O)c1cccc2c(CN3CCc4c(c(C(=O)NCc5ccccc5)nn4CCO)C3)c[nH]c12 [Compound 28] | 155
CC(=O)c1ccc(CN2CCc3c(c(C(=O)NCc4ccccc4)nn3CCO)C2)cc1 [Compound 29] | 222
Cn1nc(C(=O)NCc2ccc3ccccc3c2)c2c1CCN(Cc1c[nH]c3ccccc13)C2 [Compound 31] | 35.2

SMILES | EC50 [µM]
Cn1nc(C(=O)NCc2cccc3ccccc23)c2c1CCN(Cc1cccc3ccccc13)C2 [Compound 33] | 41.8
COc1ccc(CN2CCc3c(c(C(=O)NCc4cccc5ccccc45)nn3-c3ccccc3)C2)c2ccccc12 [Compound 37] | 7.61
O=C(NCc1cccc2ccccc12)c1nn(CCO)c2c1CN(Cc1ccc(-c3ccccc3)cc1)CC2 [Compound 38] | 10.4
O=C(NCc1cccc2ccccc12)c1nn(CCO)c2c1CN(Cc1cccc(-c3ccccc3)c1)CC2 [Compound 39] | 12.7
O=C(NCc1cccc2ccccc12)c1nn(CCO)c2c1CN(Cc1cccc3cccnc13)CC2 [Compound 45] | 53.8
O=C(NCc1cccc2ccccc12)c1nn(CCO)c2c1CN(Cc1ccc(C(F)(F)F)cc1)CC2 [Compound 48] | 34
CCCc1ccc(CN2CCc3c(c(C(=O)NCc4cccc5ccccc45)nn3CCO)C2)cc1 [Compound 49] | 32.5
O=C(NCc1cccc2ccccc12)c1nn(CCO)c2c1CN(Cc1cccc3cc[nH]c13)CC2 [Compound 53] | 39.8
O=C(NCc1cccc2ccccc12)c1nn(CCO)c2c1CN(Cc1cccc3c1OCO3)CC2 [Compound 54] | 84.4
Cc1nc2sccn2c1CN1CCc2c(c(C(=O)NCc3ccccc3)nn2CCO)C1 [Compound 63] | 171
O=C(NCc1ccccc1)c1nn(CCO)c2c1CN(CC1=CC(=O)C3C=C(Cl)C=CC3O1)CC2 (stereo not drawn) [Compound 64] | 132
CC(NC(=O)c1nn(CCO)c2c1CN(Cc1cnn(-c3ccccc3)c1)CC2)c1ccccc1 (stereo not drawn) [Compound 65] | 112
CC(NC(=O)c1nn(CCO)c2c1CN(Cc1ccc3ccoc3c1)CC2)c1ccccc1 (stereo not drawn) [Compound 66] | 147
O=C(c1nn(Cc2ccccn2)c2c1CN(Cc1ccccc1)CC2)N1CCc2ccccc2C1 [Compound 67] | 74.3
O=C(NCc1ccccc1)c1nn(CCO)c2c1CN(Cc1ccc3c(c1)OC=CO3)CC2 [Compound 68] | 159
CC(NC(=O)c1nn(CCO)c2c1CN(Cc1cccc3c1OCO3)CC2)c1ccccc1 (stereo not drawn) [Compound 69] | 151
Cn1nc(C(=O)NCc2ccccc2)c2c1CCN(Cc1noc3c1CCCC3)C2 [Compound 70] | 9.69
CCc1ccc(CN2CCc3c(c(C(=O)NCc4ccccc4)nn3CCO)C2)cc1 [Compound 71] | 150
O=C(NCc1ccccc1)c1nn(CCO)c2c1CN(Cc1ccccc1C(F)(F)F)CC2 [Compound 72] | 223

SMILES | EC50 [µM]
O=C(CC1CC1)N1CCc2c(c(C(=O)N3CCc4ccccc4C3)nn2Cc2ccccn2)C1 [Compound 73] | 220
O=C(NCc1ccccc1)c1nn(CCO)c2c1CN(Cc1ccccc1-c1ccco1)CC2 [Compound 74] | 78.3
COc1cc(CN2CCc3c(c(C(=O)NCc4ccccc4)nn3CCO)C2)cc2c1OCO2 [Compound 75] | 94.9
O=C(NCc1ccccc1)c1nn(CCO)c2c1CN(Cc1cccc(OC(F)F)c1)CC2 [Compound 76] | 148
C=C(C)C1CC=C(CN2CCc3c(c(C(=O)NCc4ccccc4)nn3CCO)C2)CC1 (stereo not drawn) [Compound 77] | 142
O=C(NCc1ccccc1)c1nn(CCO)c2c1CN(Cc1ccc(-c3ccccc3)cc1)CC2 [Compound 78] | 68.8
C=CCn1nc(C(=O)NCc2ccccc2)c2c1CCN(Cc1ccc3ncccc3c1)C2 [Compound 79] | 95.4
Cc1ccccc1-c1ccc(CN2CCc3c(c(C(=O)NCc4ccccc4)nn3CCO)C2)cc1 [Compound 80] | 45.9
O=C(NCc1ccccc1)c1nn(CCO)c2c1CN(CC(c1ccccc1)c1ccccc1)CC2 [Compound 81] | 74.9
O=C(NCc1ccccc1)c1nn(CCO)c2c1CN(Cc1cnn(-c3ccccc3)c1)CC2 [Compound 82] | 149
O=C(NCc1ccccc1)c1nn(CCO)c2c1CN(Cc1cccn1-c1ccccn1)CC2 [Compound 83] | 132
CC(NC(=O)c1nn(CCO)c2c1CN(CC1Cc3ccccc3CN1C)CC2)c1ccccc1 (stereo not drawn) [Compound 86] | 169
CC(NC(=O)c1nn(CCO)c2c1CN(C(=O)c1ncc3sccn13)CC2)c1ccccc1 (stereo not drawn) [Compound 87] | 230
COC(=O)c1ccc2c(CN3CCc4c(c(C(=O)NCc5cccc6ccccc56)nn4CCO)C3)c[nH]c2c1 [Compound 108] | 38.7
O=C(NCc1cccc2ccccc12)c1nn(CCO)c2c1CN(Cc1c[nH]c3cc(OCc4ccccc4)ccc13)CC2 [Compound 113] | 72.1
O=C(NCc1cccc2ccccc12)c1nn(CCO)c2c1CN(CCc1ccccc1)CC2 [Compound 116] | 230
O=C(NCc1cccc2ccccc12)c1nn(CCO)c2c1CN(Cc1c[nH]c3c(C(=O)O)cccc13)CC2 [Compound 117] | 391
Cc1ccc(CCN2CCc3c(c(C(=O)NCc4cccc5ccccc45)nn3CCO)C2)cc1 [Compound 118] | 632

Same assay, conditions: AlphaScreen EC50 [μM] (±SD), 30 nM PEX5, 30 nM PEX14; quadruplicate

SMILES | EC50 [µM]
O=C(NCc1ccccc1)c1nn(CCO)c2c1CN(Cc1cc3ccccc3c3ccccc13)CC2 [Compound 30] | 29.8
